Results as given in US20060073530A1 (priority 2001, published 2006).
“And” between values parts separate entries of the source, which are not always exact repeats. Equal entries are not always repeated. “Also recorded” adds a separate entry of the source. Where two headings read alike, the source gives them in different places.

Tests used:
staphylococci [1] = assay: Growth of staphylococci in the presence of antibiotics; assay type: cell-based, S. aureus OS2
[2] = system: cell wall sorting of Seb-Spa490-524; assay type: cell-based, S. aureus OS2
[3] = system: surface protein SEB-SPA490-524 (sortase acyl-enzyme intermediates); assay type: cell-based, S. aureus
sortase = sortase (Staphylococcus aureus, UniProt Q2FV99); assay type: biochemical, staphylococcal
[4] = system: surface protein SEB-MH6-CWS; assay type: cell-based, S. aureus OS2 and BB270
[5] = target: sortase (cleavage of sorting signals at the LPXTG motif) (Staphylococcus aureus, UniProt Q2FV99); assay type: cell-based, S. aureus OS2
SrtBΔN = SrtBΔN (Staphylococcus aureus, UniProt Q2FZE3, E55A/N120I/R216K); assay type: biochemical, S. aureus; conditions: for SrtBΔN cleavage of NPQTN peptides: incubation of purified enzyme with inhibitor
SrtADN = SrtADN (Staphylococcus aureus, UniProt Q2FV99); assay type: biochemical, S. aureus
staphylococci [6] = assay type: cell-based, S. aureus OS2
[7] = system: Sec-dependent export of P1 precursor (SecA); assay type: cell-based, S. aureus OS2
[8] = system: bacterial cell wall synthesis; assay type: cell-based, S. aureus

## moenomycin
Staphylococci [1]; 10 μg/ml antibiotic, compared to mock treated control
  growth rate of staphylococci: reduced the growth rate
[2]
  rate of cell wall sorting (P2 precursor accumulation): similar, albeit weaker effect

## NO [NH2OH, hydroxylamine]
[3]
  amounts of released surface proteins: increased amounts of released surface proteins
  surface proteins released into the extra-cellular medium: 16.9% and 12.7%
sortase; 0.1 M NH2OH added to staphylococcal extracts
  fluorescence intensity (LPXTG peptide cleavage): forty fold increase in fluorescence intensity
[4]
  release of SEB-MH6-CWS: caused the release of SEB-MH6-CWS

## O=C(O)CI [iodoacetate]
[5]
  cleavage of sorting signals at the LPXTG motif (cell wall sorting reaction): did not

## O[C@H](CS)[C@H](O)CS (racemic) [dithiothreitol]
[5]
  cleavage of sorting signals at the LPXTG motif (cell wall sorting reaction): did not affect the sorting reaction
SrtBΔN; addition of DTT, even in the presence of MTSET
  SrtB-mediated cleavage of NPQTN peptide: greatly stimulated SrtB-mediated cleavage
SrtADN; MTSET-inactivated SrtADN incubated with 10 mM DTT
  LPXTG peptide cleavage activity restored: 80%

## CC1(C)S[C@@H]2[C@H](NC(=O)Cc3ccccc3)C(=O)N2[C@H]1C(=O)O [penicillin, penicillin G]
Staphylococci [1]
  growth rate of staphylococci: reduced the growth rate
[2]
  rate of cell wall sorting (P2 precursor accumulation): did not alter the rate of cell wall sorting

## NC(=O)CI [iodoacetamide]
[5]
  cleavage of sorting signals at the LPXTG motif (cell wall sorting reaction): did not

## CS(=O)(=O)SCCS(=O)(=O)[O-].[Na+] [MTSES]
[5]
  cleavage of sorting signals at the LPXTG motif (cell wall sorting reaction): interfered with sorting albeit not as effectively as MTSET

## O=S(=O)(F)Cc1ccccc1 [PMSF]
[5]
  cleavage of sorting signals at the LPXTG motif (cell wall sorting reaction): Neither PMSF, which reacts with hydroxyl (Creighton, 1993), nor treatment with the divalent cation chelator EDTA interfered with cell wall sorting

## C[N+](C)(C)CCSS(C)(=O)=O [MTSET, [2-(trimethylammonium)ethyl]methanethiosulfonate]
[5]
  cleavage of sorting signals at the LPXTG motif (cell wall sorting reaction): sensitive; also recorded: interfered with the cleavage of sorting signals at the LPXTG motif
Staphylococci [6]
  incorporation of [35S]methionine by staphylococci: prevented incorporation
sortase; pre-incubation of staphylococcal extracts with MTSET
  hydroxylaminolysis of LPXTG peptide: inhibited
SrtBΔN
  SrtBΔN cleavage of NPQTN peptides: inhibited
[7]
  Sec-dependent export of P1 precursor: remained unaltered
SrtADN; pre-incubation with MTSET
  hydroxylaminolysis of LPXTG peptide by SrtADN: abolished all enzymatic activity

## O=C(O)CN(CCN(CC(=O)O)CC(=O)O)CC(=O)O [EDTA]
[5]
  cleavage of sorting signals at the LPXTG motif (cell wall sorting reaction): Neither PMSF, which reacts with hydroxyl (Creighton, 1993), nor treatment with the divalent cation chelator EDTA interfered with cell wall sorting

## O=C(O)c1cc[c]([Hg][OH])cc1 [pHMB, p-hydroxymercuribenzoic acid]
[5]
  cleavage of sorting signals at the LPXTG motif (cell wall sorting reaction): chemical inhibitors of the sorting reaction; also recorded: displayed an inhibitory effect
SrtBΔN
  SrtBΔN cleavage of NPQTN peptides: inhibited
SrtADN; incubation of purified enzyme with inhibitor
  SrtAΔN cleavage of LPXTG containing peptides: inhibited

## CCN1C(=O)C=CC1=O [N-ethylmaleimide]
[5]
  cleavage of sorting signals at the LPXTG motif (cell wall sorting reaction): did not

## CSS(C)(=O)=O [methylmethane thiosulfonate]
SrtADN; SrtA DN, absence of the peptidoglycan substrate
  peptide bond hydrolysis / cleavage of LPETG peptide: inhibited

## CN[C@H](CC(C)C)C(=O)N[C@H]1C(=O)N[C@@H](CC(N)=O)C(=O)N[C@H]2C(=O)N[C@H]3C(=O)N[C@H](C(=O)N[C@H](C(=O)O)c4cc(O)cc(O)c4-c4cc3ccc4O)[C@H](O)c3ccc(c(Cl)c3)Oc3cc2cc(c3O[C@@H]2O[C@H](CO)[C@@H](O)[C@H](O)[C@H]2O[C@H]2C[C@](C)(N)[C@H](O)[C@H](C)O2)Oc2ccc(cc2Cl)[C@H]1O [vancomycin]
Staphylococci [1]
  growth rate of staphylococci: reduced the growth rate
[8]
  inhibition of cell wall synthesis: 20 fold
  ratio of incorporated [3H]lysine/[3H]leucine: 1.5
[2]
  rate of cell wall sorting (P2 precursor accumulation): steady accumulation of P2 precursor

## OCCS [mercaptoethanol]
[5]
  cleavage of sorting signals at the LPXTG motif (cell wall sorting reaction): did not affect the sorting reaction
